From article PMC7415729 (Pharmacology, biochemistry, and behavior, 2020)

Key:
C57BL/6 mice [1] = experiment: Radiotelemetry of core temperature with 1-ABT pretreatment; format: in vivo, mouse
CB1 receptors [2] = target: T1, CB1 receptors (Mus musculus, UniProt P47746); experiment: Competition receptor binding vs [3H]CP-55,940 in mouse brain membranes; settings: pKi, displacement of 0.2 nM [3H]CP-55,940, mouse brain membranes, N=3
C57BL/6 mice [3] = experiment: Cannabinoid tetrad: antinociception; format: in vivo, mouse; settings: for tail withdrawal latency, % of the maximum: maximal latency 10 sec
[4] = test system: HBM (human brain microsomes); experiment: Oxidative metabolism by human microsomes; format: in vitro ADME; settings: 50 μM 5F-AKB48, HBM 1 μg/μl, 60 min
C57BL/6 mice [5] = experiment: Cannabinoid tetrad: locomotor activity; format: in vivo, mouse; settings: for decrease of locomotor activity below the vehicle control condition: highest tested dose
C57BL/6 mice [6] = experiment: Cannabinoid tetrad: hypothermia; format: in vivo, mouse; settings: for reduction of rectal temperature below the physiological range: highest tested dose
[7] = test system: HLM (human liver microsomes); experiment: Oxidative metabolism by human microsomes; format: in vitro ADME; settings: 50 μM 5F-AKB48, mixed gender HLM 1 μg/μl, 60 min
CB1 receptors [8] = target: T1, CB1 receptors; experiment: [35S]GTPγS binding; settings: for EC50: N=3
[9] = test system: HIM (human intestinal microsomes); experiment: Oxidative metabolism by human microsomes; format: in vitro ADME; settings: 50 μM 5F-AKB48, HIM 1 μg/μl, 60 min
C57BL/6 mice [10] = experiment: Cannabinoid tetrad: catalepsy; format: in vivo, mouse
[11] = 5F-AKB48 3.2 mg/kg, mice pretreated with 100 mg/kg 1-ABT
[12] = 5F-AKB48 3.2 mg/kg, vehicle-pretreated mice
[13] = rimonabant 10.0 mg/kg i.p. before 3.2 mg/kg 5F-AKB48
[14] = rimonabant 10.0 mg/kg i.p. before 32 mg/kg Δ9-THC

T1 sequence (P47746 whole entry): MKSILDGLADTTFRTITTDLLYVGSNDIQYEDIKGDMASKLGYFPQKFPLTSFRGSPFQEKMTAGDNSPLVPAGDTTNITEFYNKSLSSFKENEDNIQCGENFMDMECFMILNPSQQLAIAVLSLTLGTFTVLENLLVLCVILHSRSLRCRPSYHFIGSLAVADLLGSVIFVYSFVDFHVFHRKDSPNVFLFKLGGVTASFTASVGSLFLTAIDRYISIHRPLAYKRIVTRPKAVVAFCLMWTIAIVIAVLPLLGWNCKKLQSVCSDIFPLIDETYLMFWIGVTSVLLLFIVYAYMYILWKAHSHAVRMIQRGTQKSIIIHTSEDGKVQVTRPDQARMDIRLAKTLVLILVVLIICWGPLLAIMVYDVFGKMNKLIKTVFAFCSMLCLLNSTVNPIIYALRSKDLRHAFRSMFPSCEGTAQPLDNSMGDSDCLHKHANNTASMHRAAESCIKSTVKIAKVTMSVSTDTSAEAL

Q: For `O=C(NC12CC3CC(CC(C3)C1)C2)c1nn(CCCCCF)c2ccccc12` [5F-AKB48, N-(adamantan-1-yl)-1-(5-fluoropentyl)-1H-indazole-3-carboxamide], which “duration of hypothermic action” value (C57BL/6 mice [1]; [11]) is on record?
A: Its value is “at least 12 hours”.

Q: And the “minimum core temperature below the physiological range” value (C57BL/6 mice [1]; [11])?
A: The value was “approximately 7 °”.

Q: What about the “minimum core temperature below the physiological range” value (C57BL/6 mice [1]; [12]) of the same compound?
A: Its value is “approximately 7 °”.

Q: What about the “time by which hypothermic effects completely resolved” value (C57BL/6 mice [1]; [12]) of the same compound?
A: The value was no more than 4 h.

Q: What about the “area under the curve for hypothermic effects, 1-ABT-treated vs vehicle mice” value (C57BL/6 mice [1]; 5F-AKB48 3.2 mg/kg, 100 mg/kg 1-ABT pretreatment) of the same compound?
A: The value was “approximately 5 fold”.

Q: And the Ki (CB1 receptors [2])?
A: Its Ki is 0.665 nM.

Q: And the “duration of antinociceptive effects (still apparent)” value (C57BL/6 mice [3]; 5F-AKB48 3.2 mg/kg i.p.)?
A: Its value is “at least 6 hours”.

Q: What about the “tail withdrawal latency, % of the maximum” value (C57BL/6 mice [3]; 5F-AKB48 3.2 mg/kg i.p., by 15 min post-injection) of the same compound?
A: The value was “approximately 90%”.

Q: What about the oxidative activity [4] of the same compound?
A: The oxidative activity was “did not show any activity”.

Q: And the “decrease of locomotor activity below the vehicle control condition” value (C57BL/6 mice [5]; 5F-AKB48 3.2 mg/kg i.p.)?
A: The value was “approximately 5 fold”.

Q: What about the “time by which hypothermic effects completely resolved” value (C57BL/6 mice [6]; 5F-AKB48 3.2 mg/kg i.p.) of the same compound?
A: The value was no more than 4 h.

Q: What about the “reduction of rectal temperature below the physiological range” value (C57BL/6 mice [6]; 5F-AKB48 3.2 mg/kg i.p.) of the same compound?
A: Its value is “approximately 4 °”.

Q: And the “production of hydroxylated metabolites” value [7]?
A: The value was “highest amount”.

Q: And the “G protein activation by 1 μM compound on co-incubation with rimonabant” value (CB1 receptors [8]; 1 μM compound + rimonabant 100 nM, mouse brain membranes)?
A: Its value is “complete reversal”.

Q: What about the EC50 (CB1 receptors [8]; pEC50, [35S]GTPγS binding, mouse brain membranes) of the same compound?
A: Its EC50 is 6.24 nM.

Q: What about the EC50 (CB1 receptors [8]; potency (EC50), [35S]GTPγS binding, mouse brain membranes 25 μg) of the same compound?
A: Its EC50 is 7.7 nM.

Q: And the Emax (CB1 receptors [8]; read-out: Emax, increase of [35S]GTPγS binding)?
A: The Emax was 182%.

Q: And the “oxidative activity / metabolite production” value [9]?
A: Its value is “significant amount of activity”.

Q: What about the “time by which cataleptic effects largely resolved” value (C57BL/6 mice [10]; 5F-AKB48 3.2 mg/kg i.p.) of the same compound?
A: The value was no more than 3 h.

Q: What about the horizontal bar latency (C57BL/6 mice [10]; 5F-AKB48 3.2 mg/kg i.p., any time point, 30 sec cut-off) of the same compound?
A: Its horizontal bar latency is less than 30 s.

Q: With `Nn1nnc2ccccc21` [1-ABT, reference compound] as the compound, how does the “effect on core temperature” value (C57BL/6 mice [1]; 100 mg/kg 1-ABT alone, 2 hours) read?
A: The value was “no systematic changes in temperature”.

Q: For `CCCCCc1cc(O)c2c(c1)OC(C)(C)[C@@H]1CCC(C)=C[C@@H]21` [Δ^9-THC, Δ^9-tetrahydrocannabinol], which “duration of antinociceptive effects (still apparent)” value (C57BL/6 mice [3]; Δ9-THC 32 mg/kg i.p.) is on record?
A: Its value is “at least 6 hours”.

Q: What about the “tail withdrawal latency, % of the maximum” value (C57BL/6 mice [3]; Δ9-THC 32 mg/kg i.p., by 30 min post-injection) of the same compound?
A: The value was “approximately 90%”.

Q: And the “decrease of locomotor activity below the vehicle control condition” value (C57BL/6 mice [5]; Δ9-THC 32 mg/kg i.p.)?
A: Its value is “approximately 5 fold”.

Q: And the “duration of hypothermic effects (still apparent after drug administration)” value (C57BL/6 mice [6]; Δ9-THC 32 mg/kg i.p.)?
A: Its value is no less than 6 h.

Q: What about the “reduction of rectal temperature below the physiological range” value (C57BL/6 mice [6]; Δ9-THC 32 mg/kg i.p.) of the same compound?
A: The value was “approximately 4 °”.

Q: And the “duration of cataleptic effects (still apparent)” value (C57BL/6 mice [10]; Δ9-THC 32 mg/kg i.p.)?
A: Its value is no less than 6 h.

Q: And the horizontal bar latency (C57BL/6 mice [10]; Δ9-THC 32 mg/kg i.p., by 15 min post-injection, 30 sec maximum)?
A: The horizontal bar latency was roughly 30 s.

Q: For `Cc1c(C(=O)NN2CCCCC2)nn(-c2ccc(Cl)cc2Cl)c1-c1ccc(Cl)cc1` [rimonabant], which “effect of prior rimonabant on antinociceptive effects of 5F-AKB48” value (C57BL/6 mice [3]; [13]) is on record?
A: Its value is “completely blocked”.

Q: And the “effect of prior rimonabant on antinociceptive effects of Δ9-THC” value (C57BL/6 mice [3]; [14])?
A: Its value is “completely blocked”.

Q: What about the “effect of prior rimonabant on hypolocomotor effects of 5F-AKB48” value (C57BL/6 mice [5]; [13]) of the same compound?
A: Its value is “partially attenuated”.

Q: And the “effect of prior rimonabant on hypolocomotor effects of Δ9-THC” value (C57BL/6 mice [5]; [14])?
A: Its value is “partially attenuated”.

Q: What about the “effect of prior rimonabant on hypothermic effects of 5F-AKB48” value (C57BL/6 mice [6]; [13]) of the same compound?
A: The value was “completely blocked”.

Q: What about the “effect of prior rimonabant on hypothermic effects of Δ9-THC” value (C57BL/6 mice [6]; [14]) of the same compound?
A: The value was “completely blocked”.

Q: What about the “effect of prior rimonabant on cataleptic effects of 5F-AKB48” value (C57BL/6 mice [10]; [13]) of the same compound?
A: The value was “completely blocked”.

Q: And the “effect of prior rimonabant on cataleptic effects of Δ9-THC” value (C57BL/6 mice [10]; [14])?
A: The value was “completely blocked”.
